Data on four compounds can be found in ChEMBL document CHEMBL1122700, “Structure-activity, theoretical, and X-ray studies on the intramolecular interactions in a series of novel histamine H2 receptor antagonists” (1984).

Test [1] concerns Canis familiaris. Kind of test: Inhibition of histamine-stimulated gastric acid secretion in dog after intravenous administration. The test is classed as functional. The conditions noted are these: Canis lupus familiaris, Stomach.
Test [2] addresses Histamine H2 receptor (Cavia porcellus) (UniProt P47747). Kind of test: Histamine H2 receptor affinity was assessed in vitro by antagonism of dimaprit-stimulated chronotropic response in guinea pig right atrium at 0.1 ug/mL. The format is functional, tissue-based. The conditions noted are these: Cardiac atrium.
Test [3] has the same target. In words: Binding constant towards histamine H2 receptor.

Sequence of Histamine H2 receptor (Cavia porcellus) (P47747 whole entry): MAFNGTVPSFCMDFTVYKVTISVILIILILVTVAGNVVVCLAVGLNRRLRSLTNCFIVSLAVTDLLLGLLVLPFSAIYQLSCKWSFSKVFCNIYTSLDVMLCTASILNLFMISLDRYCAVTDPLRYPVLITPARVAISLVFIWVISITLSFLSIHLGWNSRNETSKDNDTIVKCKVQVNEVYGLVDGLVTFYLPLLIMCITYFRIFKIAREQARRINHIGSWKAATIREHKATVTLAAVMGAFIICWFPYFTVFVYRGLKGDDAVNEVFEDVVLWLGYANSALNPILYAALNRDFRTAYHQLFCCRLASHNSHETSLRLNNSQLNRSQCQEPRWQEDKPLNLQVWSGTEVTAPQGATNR

Usually ED50 stands for the midpoint of the dose-response relation. Turning to `CN(C)Cc1ccc(CSCCNc2n[s+]([O-])nc2N)[nH]1` (stereo not drawn), the median effective dose (ED50) in test [1] was 0.17 mg/kg. The compound further showed a Relative potency in test [2] of 0.31. The -Log KB in test [3] amounted to 6.85.
`CN(C)Cc1cccc(CSCCNc2n[s+]([O-])nc2N)c1` (stereo not drawn) showed an ED50 in test [1] of 0.013 mg/kg. The same compound displayed a Relative potency in test [2] of 0.51.
In test [1], `CN(C)Cc1ccc(CSCCNc2n[s+]([O-])nc2N)s1` (stereo not drawn) displayed an ED50 of 0.008 mg/kg.
Take `CN(C)Cc1cccc(CSCCNc2n[s+]([O-])nc2N)n1` (stereo not drawn): in test [1], the 50% effective dose (ED50) amounted to 0.17 mg/kg. In addition, in test [2], the Relative potency is 0.84.
